Measurements as given in patent US20260159520A1, “HETEROBIFUNCTIONAL COMPOUNDS AND METHODS OF TREATING DISEASE” (Halda Therapeutics OpCo, Inc., priority 2022, published 2026).

What was measured:
Assay type in all cases: cell-based
[1] = tested on: T-Rex 293 cell line SC3 cells having increased expression of androgen receptor protein; assay: Cellular growth inhibition, T-Rex 293 SC3 cells with doxycycline (increased androgen receptor expression); conditions: with 10 ng/mL doxycycline (increased androgen receptor), 72 hours, CellTiter-Glo 2.0
Protocol: (§1) The following types of cells were prepared for this experiment: (i) a T-Rex 293 cell line having increased expression of androgen receptor protein due to exposure to doxycycline and (ii) a T-Rex 293 cell line lacking increased expression of androgen receptor protein. Ability of the test compounds to inhibit proliferation of the foregoing cell types was evaluated according to the procedures set forth below.
(§2) The doxycycline-inducible androgen receptor protein expressing cell line was established using the following protocol: T-Rex 293 cells were purchased from Invitrogen (Cat #R71007) and transfected using Lipofectamine 2000 with the wild-type androgen receptor protein sequence cloned into the pcDNA4/TO vector. Transfected cells were selected using 400 μg/mL Zeocin (Invitrogen Cat #R25001). Following selection, single clones were raised and maintained in Dulbecco's Modified Eagle Medium (DMEM) supplemented with 10% w/w Tetracycline-free fetal bovine serum (FBS) and 250 μg/mL Zeocin. Clones were analyzed for expression of androgen receptor protein in the presence and absence of 10 ng/mL doxycycline (Sigma Cat #D9891), and a single doxycycline-inducible clone (hereinafter “SC3”) was selected for use in downstream assays.
(§3) The SC3 cells were seeded on poly-D-lysine coated, black clear-bottom 384-well plates at 2500/well, in 25 μL Phenol Red Free Dulbecco's Modified Eagle Medium (DMEM) supplemented with 10% w/w charcoal-dextran treated fetal bovine serum (FBS) and 1% w/w pen-strep, with or without 10 ng/mL doxycycline. Pen-Strep is a commercially available mixture of penicillin G and streptomycin, which is used in mammalian cell culture media to prevent bacterial contamination. Phenol Red Free Dulbecco's Modified Eagle Medium (DMEM) supplemented with 10% w/w charcoal-dextran treated fetal bovine serum (FBS) and 1% w/w pen-strep, with or without 10 ng/mL doxycycline is herein referred to as Treatment Medium. Following seeding of cells in the plates, the plates were spun at 300×g for 30 seconds, then equilibrated to room temperature for 30 minutes, and then deposited in a humidified tissue culture incubator maintained at 37° C. with 5% CO2.
(§4) At 24 hours after seeding of the cells, dilutions of test compound were prepared in DMSO and dissolved in Treatment Medium, to achieve a final DMSO concentration of 0.5% w/w, thereby providing the Test Compound Solution. A 25 μL aliquot of the Test Compound Solution was added to cells in the well plates. An equal volume of a solution containing DMSO and Treatment Medium was used as a negative control. Following treatment of cells with Test Compound Solution or said equal volume of a solution containing DMSO and Treatment Medium, the plates were spun at 300×g for 30 seconds, and then left in an incubator for 72 hours.
(§5) At the end of the treatment duration, cell viability was quantified with CellTiter-Glo 2.0 reagent (Promega Cat #G9243). For this purpose, plates were equilibrated to room temperature for 30 minutes, and then 25 μL of CellTiter-Glo 2.0 reagent was added to cells in the plate wells. Plates were then agitated on a shaker for two minutes at 500 rpm and subsequently incubated at room temperature for 10 minutes. Following incubation, the plates were spun at 3000×g for 30 seconds, then sealed with an optical adhesive cover, and luminescence readings were measured with an EnVision Plate Reader.
(§6) Data was normalized using zero luminescence for baseline. A four-parameter non-linear regression curve fit was applied to dose-response data in GraphPad Prism data analysis software to determine the half-maximal growth inhibitory concentration (GI50) for each test compound.

[2] = tested on: T-Rex 293 cell line SC3 cells lacking increased expression of androgen receptor protein; assay: Cellular growth inhibition, T-Rex 293 SC3 cells without doxycycline; conditions: not exposed to doxycycline, 72 hours, CellTiter-Glo 2.0
Protocol: as §1, §2, §3, §4, §5, §6

VCaP cells = assay: Cellular growth inhibition assay for VCaP cells; conditions: Homo sapiens, 72 hours, CellTiter-Glo 2.0
Protocol: VCaP cells were purchased from American Type Cell Culture (ATCC Cat #CRL2876) and then seeded on poly-D-lysine coated, black clear-bottom 384-well plates at 5000/well in 25 μL Dulbecco's Modified Eagle Medium (DMEM) supplemented with 10% w/w Fetal bovine serum (FBS) and 1% w/w Pen-Strep. Pen-Strep is a commercially available mixture of penicillin G and streptomycin, which is used in mammalian cell culture media to prevent bacterial contamination. Dulbecco's Modified Eagle Medium (DMEM) supplemented with 10% w/w fetal bovine serum (FBS) and 1% w/w Pen-Strep is herein referred to as Treatment Medium. Following seeding of cells in the plates, the plates were spun at 300×g for 30 seconds, then equilibrated to room temperature for 30 minutes, and then deposited in a humidified tissue culture incubator maintained at 37° C. with 5% CO2.
as §4
as §5, with “Reader. Data was normalized using zero luminescence for baseline.” for “Reader.”
A four-parameter non-linear regression curve fit was applied to dose-response data in GraphPad Prism data analysis software to determine the half-maximal growth inhibitory concentration (GI50) for each test compound.

Row | Compound | GI50 [1] [µM] | GI50 [2] [µM] | GI50 (VCaP cells) [µM]
1 | CC1(C)[C@H](NC(=O)c2cnc(N3CCC(OCCOCCOCCOCCOCCOCCOCCNS(=O)(=O)c4ccc(Nc5ncc(Br)c(Nc6cccc(F)c6C(N)=O)n5)cc4)CC3)nc2)C(C)(C)[C@H]1Oc1ccc(C#N)c(Cl)c1 [Compound I-16] | > 3.5 | > 3.5 | 
2 | CN(CCOCCOCCOCCOCCOCCOCCNS(=O)(=O)c1ccc(Nc2ncc(Br)c(Nc3cccc(F)c3C(N)=O)n2)cc1)c1ncc(C(=O)N[C@H]2C(C)(C)[C@H](Oc3ccc(C#N)c(Cl)c3)C2(C)C)cn1 [Compound I-21] | > 3.5 | > 3.5 | 
3 | CCc1cnn2c(NCc3ccc(OCCCOC4CCN(c5ncc(C(=O)N[C@H]6C(C)(C)[C@H](Oc7ccc(C#N)c(Cl)c7)C6(C)C)cn5)CC4)nc3)cc(N3CCCC[C@H]3CCO)nc12 [Compound I-26] | 1 to 3.5 | > 3.5 | 
4 | CCc1cnn2c(NCc3ccc(OCCCCCOC4CCN(c5ncc(C(=O)N[C@H]6C(C)(C)[C@H](Oc7ccc(C#N)c(Cl)c7)C6(C)C)cn5)CC4)nc3)cc(N3CCCC[C@H]3CCO)nc12 [Compound I-28] | 0.1 to 1 | > 3.5 | 
5 | CCc1cnn2c(CCc3ccc(OCCCCCCOC4CCN(c5ncc(C(=O)N[C@H]6C(C)(C)[C@H](Oc7ccc(C#N)c(Cl)c7)C6(C)C)cn5)CC4)nc3)cc(N3CCCC[C@H]3CCO)nc12 [Compound I-29] | 0.1 to 1 | > 3.5 | 
6 | CCc1cnn2c(NCc3ccc(OCCCCCCCOC4CCN(c5ncc(C(=O)N[C@H]6C(C)(C)[C@H](Oc7ccc(C#N)c(Cl)c7)C6(C)C)cn5)CC4)nc3)cc(N3CCCC[C@H]3CCO)nc12 [Compound I-30] | > 3.5 | > 3.5 | 
7 | CCc1cnn2c(NCc3ccc(OCCCOCCOC4CCN(c5ncc(C(=O)N[C@H]6C(C)(C)[C@H](Oc7ccc(C#N)c(Cl)c7)C6(C)C)cn5)CC4)nc3)cc(N3CCCC[C@H]3CCO)nc12 [Compound I-32] | < 0.1 | 1 to 3.5 | < 0.1
8 | CCc1cnn2c(NCc3ccc(OCCOCCCOC4CCN(c5ncc(C(=O)N[C@H]6C(C)(C)[C@H](Oc7ccc(C#N)c(Cl)c7)C6(C)C)cn5)CC4)nc3)cc(N3CCCC[C@H]3CCO)nc12 [Compound I-33] | < 0.1 | 1 to 3.5 | 0.1 to 1
9 | CCc1cnn2c(NCc3ccc(OCCCOCCCOC4CCN(c5ncc(C(=O)N[C@H]6C(C)(C)[C@H](Oc7ccc(C#N)c(Cl)c7)C6(C)C)cn5)CC4)nc3)cc(N3CCCC[C@H]3CCO)nc12 [Compound I-35] | < 0.1 | 0.1 to 1 | 0.1 to 1
10 | CCc1cnn2c(NCc3ccc(OCCOCCCCOC4CCN(c5ncc(C(=O)N[C@H]6C(C)(C)[C@H](Oc7ccc(C#N)c(Cl)c7)C6(C)C)cn5)CC4)nc3)cc(N3CCCC[C@H]3CCO)nc12 [Compound I-36] | < 0.1 | > 3.5 | < 0.1
11 | CCc1cnn2c(NCc3ccc(OCCCCCOCCOC4CCN(c5ncc(C(=O)N[C@H]6C(C)(C)[C@H](Oc7ccc(C#N)c(Cl)c7)C6(C)C)cn5)CC4)nc3)cc(N3CCCC[C@H]3CCO)nc12 [Compound I-37] | 0.1 to 1 | > 3.5 | > 3.5
12 | CCc1cnn2c(NCc3ccc(OCCCCOCCCOC4CCN(c5ncc(C(=O)N[C@H]6C(C)(C)[C@H](Oc7ccc(C#N)c(Cl)c7)C6(C)C)cn5)CC4)nc3)cc(N3CCCC[C@H]3CCO)nc12 [Compound I-38] | 0.1 to 1 | > 3.5 | 0.1 to 1
13 | CCc1cnn2c(NCc3ccc(OCCCOCCCCOC4CCN(c5ncc(C(=O)N[C@H]6C(C)(C)[C@H](Oc7ccc(C#N)c(Cl)c7)C6(C)C)cn5)CC4)nc3)cc(N3CCCC[C@H]3CCO)nc12 [Compound I-39] | < 0.1 | > 3.5 | > 3.5
14 | CCc1cnn2c(NCc3ccc(OCCOCCCCCOC4CCN(c5ncc(C(=O)N[C@H]6C(C)(C)[C@H](Oc7ccc(C#N)c(Cl)c7)C6(C)C)cn5)CC4)nc3)cc(N3CCCC[C@H]3CCO)nc12 [Compound I-40] | < 0.1 | > 3.5 | > 3.5
15 | CCc1cnn2c(NCc3ccc(OCCCC4CCN(CC5CCN(c6ncc(C(=O)N[C@H]7C(C)(C)[C@H](Oc8ccc(C#N)c(Cl)c8)C7(C)C)cn6)CC5)CC4)nc3)cc(N3CCCC[C@H]3CCO)nc12 [Compound I-53] | < 0.1 | 0.1 to 1 | 
16 | CCc1cnn2c(NCc3ccc(OCCCN4CCN(CC5CCN(c6cnc(C(=O)N[C@H]7C(C)(C)[C@H](Oc8ccc(C#N)c(Cl)c8)C7(C)C)cn6)CC5)CC4)nc3)cc(N3CCCC[C@@H]3CCO)nc12 [Compound I-56, N-((1r,3r)-3-(3-chloro-4-cyanophenoxy)-2,2,4,4-tetramethylcyclobutyl)-5-(4-((4-(3-((5-(((3-ethyl-5-((R)-2-(2-hydroxyethyl)piperidin-1-yl)pyrazolo[1,5-a]pyrimidin-7-yl)amino)methyl)pyridin-2-yl)oxy)propyl)piperazin-1-yl)methyl)piperidin-1-yl)pyrazine-2-carboxamide] | 0.1 to 1 | 0.1 to 1 | 0.1 to 1
17 | CCc1cnn2c(NCc3ccc(OCCCN4CCN(CC5CCN(c6ccc(C(=O)N[C@H]7C(C)(C)[C@H](Oc8ccc(C#N)c(Cl)c8)C7(C)C)nc6)CC5)CC4)nc3)cc(N3CCCC[C@@H]3CCO)nc12 [Compound I-57, N-((1r,3r)-3-(3-chloro-4-cyanophenoxy)-2,2,4,4-tetramethylcyclobutyl)-5-(4-((4-(3-((5-(((3-ethyl-5-((R)-2-(2-hydroxyethyl)piperidin-1-yl)pyrazolo[1,5-a]pyrimidin-7-yl)amino)methyl)pyridin-2-yl)oxy)propyl)piperazin-1-yl)methyl)piperidin-1-yl)picolinamide] | 0.1 to 1 | 0.1 to 1 | 0.1 to 1
